Measurements: patent US9951066B2, “Compositions, uses and methods for making them” (Pimera, Inc., priority 2014, dated 2018)
Like-named read-outs stand apart in the source and are kept apart here.

Tested on: A375 cell line
Experiment: Alamar Blue cell viability assay, A375
Assay type: cell-based
Conditions: Homo sapiens, A-375, cell proliferation inhibition, Alamar Blue, 96 h incubation
Method: Inhibitory activity on cell proliferation of representative compounds of the invention was determined using an Alamar Blue cell viability assay as described hereafter.
3000 cancer cells in 100 uL of cell culture media were plated in each well of a 96-well clear bottom, black wall cell culture-pretreated plate.
The next day compounds are serially diluted (3-fold in cell culture media) across a 96-well polypropylene mother plate from row A to row F, to yield 6 concentrations (10 uM, 3.3 uM, 1.1 uM, 370 nM, 124 nM and 41 nM) for each test compound. Rows G and H contain only DMSO.
Once titrations are made, the media in plates with cells were disposed and 100 μL of drug dilutions are transferred to plates with cells. After a ninety six-hour incubation at 37° C., 10 uL of resazurin solution from Alamar Blue Cell Viability kit (Invitrogen, Carlsbad, Calif.) was added to the media and cells were incubated at 37° C. for three more hours. At the end of this incubation the production of resofurin was measured using Spectrmax M2 microplate reader (Molecular Devices, Sunnyvale, Calif.)

[1] = Table 4, read-out: Pharmaceutical activity in A375 cell line IC50
[2] = read-out: Pharmaceutical activity IC50 A375

`CC(C)NC(=O)c1cc2cnccc2n2c1nc1ccccc12` [Compound 13C, 3,7,11b-Triaza-benzo[c]fluorene-6-carboxylic acid isopropylamide] showed an IC50 [1] of 5 to 10 µM.

Compound `CN1CCCN(c2ccc3cc(C(=O)Nc4nccs4)c4nc5ccccc5n4c3n2)CC1` [Compound 4A] has an IC50 [1] of 5 to 10 µM.

With `CN1CCCN(c2ccc3cc(C(=O)NC4CCOCC4)c4nc5ccccc5n4c3n2)CC1` [Compound 2D, 2-(4-methyl-[1,4]diazepan-1-yl)-1,7,11b-triazabenzo[c]fluorene-6-carboxylic acid (tetrahydropyran-4-yl)-amide] the IC50 [2] was 1 to 5 µM.

In the case of `COCCCNC(=O)c1cc2cnccc2n2c1nc1ccccc12` [Compound 13E, 3,7,11b-Triaza-benzo[c]fluorene-6-carboxylic acid (3-methoxy-propyl)-amide], the IC50 [1] is reported as 5 to 10 µM.

For `CN1CCN(c2ccc3cc(C(=O)NN)c4nc5ccccc5n4c3n2)CC1` [Compound 5B], the IC50 [1] was 5 to 10 µM.

With `CONC(=O)c1cc2ccc(N3CCCN(C)CC3)nc2n2c1nc1ccccc12` [Compound 4F, 2-(4-Methyl-[1,4]diazepan-1-yl)-1,7,11b-triaza-benzo[c]fluorene-6-carboxylic acid methoxy-amide] the IC50 [1] was < 1 µM.

Compound `CC(NC(=O)c1cc2ccc(N3CCCN(C)CC3)nc2n2c1nc1ccccc12)C1CC1` (stereo not shown) [Compound 2B, 2-(4-Methyl-[1,4]diazepan-1-yl)-1,7,11b-triazabenzo[c]fluorene-6-carboxylic acid (1-cyclopropylethyl)-amide] has an IC50 [2] of 5 to 10 µM.
